Test results published in article PMC7064401 (Journal of molecular microbiology and biotechnology, 2019).

Molecular target: BexImpX (Pseudobdellovibrio exovorus, UniProt M4VA25)
Experiment: inhibition of riboflavin uptake in E. coli expressing impX, fluorescence
Format: cell-based
Settings: read-out: % inhibition at 0.9 mM

Question: `NC(=O)c1cccnc1` [nicotinamide] was tested. Which inhibition at 900 µM did it give?
Answer: < 5%

Question: How did the inhibition at 900 µM turn out when `Cc1ncc(C[n+]2csc(CCOP(=O)(O)OP(=O)(O)O)c2C)c(N)n1` [thiamine pyrophosphate] was run?
Answer: < 5%
